Assay results published in article PMC12249957, “Molecular Hybrids of Thiazolidinone: Bridging Redox Modulation and Cancer Therapy” (International Journal of Molecular Sciences, 2025).

What was measured:
[1] = target: insulin-like growth factor-1 receptor (IGF-1R); set-up: method as in PMID 20178321; conditions: read-out: IC50, IGF-1R inhibition; cited from earlier work
[2] = MTS cell viability assay, HFF-1; type: cell-based, human; conditions: human, HFF-1 cells (foreskin fibroblasts)
Protocol: (§1) The MTS assay was employed in the current study to evaluate the in vitro effects of thiazolidinone derivatives (TZDs-1, 5, 6, and 7) on the cellular viability of the HFF-1, HepG2, and A549 cell lines following incubation for 24 and 48 h. Using the MTS assay allows for the quantitative measurement of how TZDs affect cell viability after a certain period of treatment. The 24- and 48-hour incubation periods are useful for observing either immediate and delayed cytotoxicity or effects on cell growth, providing more comprehensive data on the potential therapeutic or toxic properties of thiazolidinone derivatives.
(§2) All solvents used in the preparation of thiazolidinone derivatives were obtained in pure form from Sigma-Aldrich (St. Louis, MO, USA) and Thermo Fisher Scientific (Waltham, MA, USA). All other chemicals used herein were of analytical grade and were used without further purification. To separate and confirm the purity of thiazolidinone derivatives, column chromatography on silica gel (0.063–0.2 mm) and thin layer chromatography (TLC) with aluminum silica gel F254 were used. Human foreskin fibroblasts (HFF-1) (ATCC: SCRC-1041), hepatoblastoma cell line (HepG2) (ATCC: HB-8065), and human lung cancer cell line (A549) (ATCC: CCL-185) were used in this study to evaluate the cytotoxicity of the tested compounds. Distilled water for experiment preparation was generated using a Milli-Q® IQ 7005 Purification System (Millipore SAS, Molsheim, France).
(§3) HFF-1, HepG2, and A549 were cultured in DMEM (Sigma-Aldrich, St. Louis, MO, USA) medium complemented with 10% fetal bovine serum (FBS) (Sigma, Suffolk, UK), streptomycin ([…]), and penicillin (100 units/mL) (Sigma, Suffolk, UK) in a cell culture incubator (5% CO2 at 37 °C).
(§4) Thiazolidinone derivatives (TZDs-1, 5, 6, and 7) were prepared via dissolution in 10% DMSO and 8 serial dilutions and assessed starting from 5000 to 39 µg/mL. A CellTiter 96® AQueous One Solution Cell Proliferation Assay (MTS kit, Promega, Madison, WI, USA) was used to evaluate the cell viability of TZDs on the cells. Briefly, all cells were seeded into 96-well plates with a seeding density of 1.5 × 10^4 cells per well. After 24 h, cells adhered, and then, TZD derivatives were added, and plates were incubated in a cell culture incubator with 5% CO2 at 37 °C for 24 and 48 h. Completed DMEM was used as the positive control, and 0.1% Triton X-100 was used as the negative control. After incubation time, cells were washed with sterile phosphate-buffered saline, pH 7.4 (PBS), and then, a mixture of complete DMEM medium and MTS reagent was added to each well (100 µL of DMEM medium + 20 µL of MTS reagent). Finally, the plates were incubated for 3 h in a cell culture incubator. The absorbance at 492 nm was recorded using a Cytation ™ 3 Cell Imaging Multi-Mode Reader (BIOTEK Instruments Inc., Winooski, VT, USA). The percentage of cellular viability was calculated using the following equation:Cell Viability (%) = (S − T)/(H − T) × 100 where S is the absorbance of the cells treated with the applied compounds, T is the absorbance of the positive control, and H is the absorbance of the negative control. The results are presented as the mean ± SD of at least three independent measurements.

[3] = MTS cell viability assay, HepG2; type: cell-based; conditions: human, HepG2 cells; for viability: concentrations of ≥1250 µg/mL, time not stated
Protocol: as §1, §2, §3, §4

[4] = MTS cell viability assay, A549; type: cell-based; conditions: human, A549 cells
Protocol: as §1, §2, §3, §4

[5] = test system: normal (HFF-1) and cancerous cells (HepG2 and A549); assay: Summary of selectivity toward cancer cells (MTS viability, normal vs cancerous cells); type: cell-based, human
Protocol: as §1, §3, §4

[6] = set-up: method as in doi:10.1016/j.molstruc.2024.139348; conditions: DPPH; unit inferred; cited from earlier work
[7] = DPPH radical-scavenging assay (antioxidant activity); type: biochemical
Protocol: In this study, the antioxidant activity of the newly synthesized thiazolidinone derivative 5 was evaluated, and its IC50 value was compared with those of the parent compound, thiazolidinone 1; previously reported derivatives 6 and 7; and the reference antioxidant, ascorbic acid. To ensure a valid comparison, all compounds were assessed under identical conditions using the DPPH (2,2-diphenyl-1-picrylhydrazyl) radical-scavenging assay.
The antioxidant activity of thiazolidinone derivative 5 was evaluated under conditions similar to those reported in our previous work for thiazolidinone derivatives (1, 6, and 7) using the DPPH assay (2,2-diphenyl-1-picrylhydrazyl). The concentration needed to get rid of 50% of free radicals is called IC50 (half-maximal inhibitory concentration) (μg/mL). The value of the IC50 is determined by plotting antioxidant activity against the concentration employing the equation below:%Antioxidant activity = (Acontrol − Asample/Acontrol) × 100 where Acontrol is the absorbance of the DPPH solution without the sample, and Asample is the absorbance with the tested compound. These percentage inhibition values are then plotted against the logarithm of the compound concentrations to generate a dose–response curve. […]

HFF-1 cells = assay: MTS cell viability assay, HFF-1; type: cell-based, human; conditions: 48 h, 1250 µg/mL
Protocol: as §1, §2, §3, §4

| SMILES | viability at 24 h, 1250 µg/mL ([2]; 24 h) [%] | viability at 48 h, 1250 µg/mL [2] [%] | viability at 24 h, 1250 µg/mL ([3]; 24 h) [%] | viability at 48 h, 1250 µg/mL [3] [%] | viability at 24 h, 1250 µg/mL ([4]; 24 h) [%] | viability at 48 h, 1250 µg/mL [4] [%] | Selectivity Toward Cancer Cells ([5]; 24 h, 1250 µg/mL) | Selectivity Toward Cancer Cells ([5]; 48 h, 1250 µg/mL) | IC50 of antioxidant activity (Figure 3) [6] [µg/mL] | other results |
| --- | --- | --- | --- | --- | --- | --- | --- | --- | --- | --- |
| O=C1NC(=O)C(=Cc2ccco2)S1 [5-(furan-2-ylmethylene)thiazolidine-2,4-dione] | – | – | – | – | – | – | – | – | – | IC50 [1]: 61 nM |
| O=C1NC(=O)C(=Cc2ccccc2)S1 [5-benzylidenethiazolidine-2,4-dione] | – | – | – | – | – | – | – | – | – | IC50 [1]: 57 nM |
| COc1cc(C=NNC2=NC(=O)CS2)cc(OC)c1OC [TZD-1, 2-(2-(3,4,5-trimethoxybenzylidene) hydrazineyl)thiazol-4(5H)-one] | 6.45 | 15.3 | 53.2 | 21.9 | 75.6 | 70.6 | Low (high toxicity to normal cells) | Low | 263 | viability [3]: < 25% |
| COc1ccc(CN2C(=O)CSC2=NN=Cc2cc(OC)c(OC)c(OC)c2)cc1 [TZD-5, 3-(4-methoxybenzyl)-2-((3,4,5-trimethoxybenzylidene)hydrazineylidene) thiazolidin-4-one] | – | – | – | – | – | – | – | – | – | IC50 of antioxidant activity (DPPH) [7]: 24.4 µg/mL; viability at 24 h, 2500 µg/mL ([2]; 24 h, 2500 µg/mL): 97%; viability at 48 h, 2500 µg/mL ([2]; 2500 µg/mL): 48%; viability at 24 h, 2500 µg/mL ([3]; 24 h, 2500 µg/mL): 63%; viability at 48 h, 2500 µg/mL ([3]; 2500 µg/mL): 57%; viability at 24 h, 2500 µg/mL ([4]; 24 h, 2500 µg/mL): 95.8%; viability at 48 h, 2500 µg/mL ([4]; 2500 µg/mL): 55%; Selectivity Toward Cancer Cells ([5]; 24 h, 2500 µg/mL): Moderate (better selectivity); Selectivity Toward Cancer Cells ([5]; 48 h, 2500 µg/mL): Moderate |
| COc1cc(/C=N/N=C2\SCC(=O)N2Cc2ccccc2)cc(OC)c1OC [TZD-6] | 2 | 1 to 2 | 25 | 12 | 13 | 9 | Low (high toxicity to normal cells) | Low | 111 | viability at 24 h, 312 µg/mL ([2]; 24 h, 312 µg/mL): 70%; viability at 48 h, 2500 µg/mL ([2]; 2500 µg/mL): 1 to 2%; HFF-1 Viability (%) (HFF-1 cells): 1–2%; viability at 24 h, 156 µg/mL ([3]; 24 h, 156 µg/mL): 76%; viability at 24 h, 5000 µg/mL ([3]; 24 h, 5000 µg/mL): 35%; viability at 48 h, 2500 µg/mL ([3]; 2500 µg/mL): 7%; viability [3]: < 25%; viability at 24 h, 156 µg/mL ([4]; 24 h, 156 µg/mL): 78%; viability at 24 h, 5000 µg/mL ([4]; 24 h, 5000 µg/mL): 10%; viability at 48 h, 2500 µg/mL ([4]; 2500 µg/mL): 13%; viability ([4]; concentrations of ≥1250 µg/mL, time not stated): < 25% |
| COc1cc(/C=N/N=C2\SCC(=O)N2Cc2ccc([N+](=O)[O-])cc2)cc(OC)c1OC [TZD-7] | 110 | > 94 | 96.4 | ~23 | 70 | 82.3 | Moderate (better selectivity) | High | 200 | viability at 24 h, 39 µg/mL ([2]; 24 h, 39 µg/mL): 135% |
| O=C1O[C@H]([C@@H](O)CO)C(O)=C1O [ascorbic acid, reference compound] | – | – | – | – | – | – | – | – | – | IC50 of antioxidant activity (DPPH) [7]: 11.76 µg/mL |
